Here are results for 6 molecules from ChEMBL document CHEMBL5223163, “In the Quest for Potent and Selective Malic Enzyme 3 Inhibitors for the Treatment of Pancreatic Ductal Adenocarcinoma” (ACS Med Chem Lett, 2023).

In one series the test system is HUVEC. Description: Cytotoxicity against human HUVEC cells assessed as inhibition of cell growth. The class given is toxicity, cell-based.
Series [1] deals with NAD-dependent malic enzyme, mitochondrial (Homo sapiens, UniProt P23368). In words: Inhibition of His-tagged human recombinant full length ME2 using L-malate and beta-NAD+ as substrate preincubated with enzyme for 5 mins followed by beta-NAD+ challenge and incubated under shaking for 5 mins followed by incubation for 2 hrs without shaking by resorufin dye based fluorescence analysis.
Chain of NAD-dependent malic enzyme, mitochondrial (P23368 whole entry): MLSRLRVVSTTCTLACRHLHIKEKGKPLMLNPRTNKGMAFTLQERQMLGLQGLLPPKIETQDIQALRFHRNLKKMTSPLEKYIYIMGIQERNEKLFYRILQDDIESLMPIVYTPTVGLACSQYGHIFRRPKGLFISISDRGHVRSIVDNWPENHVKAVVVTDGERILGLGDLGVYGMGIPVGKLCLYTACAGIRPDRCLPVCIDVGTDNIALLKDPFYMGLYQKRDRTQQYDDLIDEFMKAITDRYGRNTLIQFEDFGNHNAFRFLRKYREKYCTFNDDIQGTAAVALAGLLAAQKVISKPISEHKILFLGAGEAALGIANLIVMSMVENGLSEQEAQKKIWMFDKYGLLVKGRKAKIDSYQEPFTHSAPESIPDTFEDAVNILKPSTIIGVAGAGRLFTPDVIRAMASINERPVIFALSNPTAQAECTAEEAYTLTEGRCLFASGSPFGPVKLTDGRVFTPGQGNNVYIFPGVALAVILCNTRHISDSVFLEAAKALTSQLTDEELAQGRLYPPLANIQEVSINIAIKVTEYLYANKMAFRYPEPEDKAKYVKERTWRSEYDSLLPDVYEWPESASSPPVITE

Series [2] relates to BXPC-3. Description: cells. The note with it: Homo sapiens, BXPC-3, 72 h.
Description: Antiproliferative activity against SMAD4/ME2-null human BXPC-3 cells assessed as inhibition of cell growth incubated for 72 hrs by CellTiter-Glo luminescence assay
Series [3] in a line: Cytotoxicity against human HCE-T cells assessed as inhibition of cell growth. The class given is toxicity, cell-based.
Series [4] is described as follows: Selectivity for SMAD4/ME2-null human BXPC-3 cells over human HCE-T cells.
In series [5] the test system is BXPC-3. Description: cells. As to conditions: Homo sapiens, BXPC-3, 72 h, read-out: INH; call rule not given here.
The target of series [6] is T1, NADP-dependent malic enzyme, mitochondrial (Homo sapiens, UniProt Q16798).
T1 sequence (Q16798 whole entry): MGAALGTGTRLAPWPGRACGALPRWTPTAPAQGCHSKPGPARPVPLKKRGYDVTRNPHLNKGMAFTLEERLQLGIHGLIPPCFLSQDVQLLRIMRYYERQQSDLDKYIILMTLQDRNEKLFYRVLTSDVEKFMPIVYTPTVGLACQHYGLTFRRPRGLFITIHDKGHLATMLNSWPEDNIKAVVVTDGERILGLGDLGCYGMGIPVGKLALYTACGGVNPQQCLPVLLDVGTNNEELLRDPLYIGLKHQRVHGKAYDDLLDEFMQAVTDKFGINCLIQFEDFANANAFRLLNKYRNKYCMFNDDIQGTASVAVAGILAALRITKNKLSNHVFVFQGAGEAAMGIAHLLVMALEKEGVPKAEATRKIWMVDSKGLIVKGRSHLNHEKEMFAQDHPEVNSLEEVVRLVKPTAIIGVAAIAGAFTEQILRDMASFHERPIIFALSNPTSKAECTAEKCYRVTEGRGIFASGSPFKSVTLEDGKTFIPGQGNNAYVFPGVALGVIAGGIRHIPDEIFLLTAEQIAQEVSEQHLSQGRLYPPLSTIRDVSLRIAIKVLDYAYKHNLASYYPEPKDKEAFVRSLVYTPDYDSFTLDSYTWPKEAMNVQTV
Description: (§1) Inhibition of His-tagged human recombinant ME3 (26 to 604 residues) using L-malate and beta-NADP+ as substrate preincubated with enzyme for 5 mins followed by beta-NADP+ challenge and incubated under shaking for 5 mins followed by incubation for 3 hrs without shaking by resorufin dye based fluorescence analysis

Series [7] deals with T2, NADP-dependent malic enzyme, mitochondrial (Homo sapiens) (UniProt Q16798).
T2 sequence (whole entry): T1 sequence (Q16798 whole entry)
As to conditions: BXPC-3, dose 100.0 µM, time 24.0 hrs.

In series [8] the target is T2, NADP-dependent malic enzyme, mitochondrial (Homo sapiens). As to conditions: BXPC-3, Lysates, dose 100.0 µM, time 2.0 hrs.
The target of series [9] is T3, NADP-dependent malic enzyme (Homo sapiens, UniProt P48163).
T3 sequence (P48163 whole entry): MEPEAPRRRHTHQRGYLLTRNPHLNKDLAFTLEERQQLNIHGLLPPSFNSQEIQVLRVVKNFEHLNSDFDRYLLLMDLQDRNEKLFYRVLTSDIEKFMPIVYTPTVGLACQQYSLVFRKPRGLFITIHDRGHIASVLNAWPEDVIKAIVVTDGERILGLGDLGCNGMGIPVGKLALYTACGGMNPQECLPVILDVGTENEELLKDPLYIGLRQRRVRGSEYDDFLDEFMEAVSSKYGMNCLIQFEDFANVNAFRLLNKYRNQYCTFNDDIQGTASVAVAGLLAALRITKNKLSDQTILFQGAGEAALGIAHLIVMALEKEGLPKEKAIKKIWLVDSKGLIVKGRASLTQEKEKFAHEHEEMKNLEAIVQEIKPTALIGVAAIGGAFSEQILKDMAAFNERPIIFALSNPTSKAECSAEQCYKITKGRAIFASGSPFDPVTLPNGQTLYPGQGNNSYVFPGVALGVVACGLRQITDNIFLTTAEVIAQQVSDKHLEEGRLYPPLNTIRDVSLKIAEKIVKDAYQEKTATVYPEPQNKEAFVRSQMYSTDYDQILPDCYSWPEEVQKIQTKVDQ
In words: Inhibition of His-tagged human recombinant full length ME1 using L-malate and beta-NADP+ as substrate preincubated with enzyme for 5 mins followed by beta-NADP+ challenge and incubated under shaking for 5 mins followed by incubation for 2 hrs without shaking by resorufin dye based fluorescence analysis.

Series [10] has as its target T1, NADP-dependent malic enzyme, mitochondrial. The source holds these as a separate data set.
Description: as §1
A short description of series [11]: Lipophilicity, log P of the compound. The class given is physicochemical. The note with it: octanol/water.

Structures are written as SMILES.

Usually IC50 stands for the midpoint of a concentration-inhibition curve. As a reminder, the ΔTm is the shift of the melting midpoint relative to a reference. In the case of `O=C(CCc1ccccc1)N1CCN(c2ccc(O)cn2)CC1`, the Activity entry in the series with HUVEC is “Non-Toxic”. Further, the IC50 in series [1] (read-out: IC50) was 1720 nM; in the series on BXPC-3 [2] it was 5100 nM; in series [3], above 30000 nM; in [6], 230 nM; in series [9] (read-out: IC50), 1500 nM. The Selectivity ratio in [4] is given as 5. For the same molecule, the inhibition at 10 µM in the series with BXPC-3 [5] is 90%. Moreover, the ΔTm in series [7] worked out at 4.9 °C; in [8], 7 °C.
For `O=C(Cc1ccccc1)N1CCN(c2ccc(O)nn2)CC1`, the IC50 entry in [1], in [10] and in [9] was “Not Active” each time.
Turning to `O=C(Cc1ccccc1)N1CCN(c2ccc(O)nc2)CC1`, the IC50 entry in [1], in series [10] and in series [9] was “Not Active” each time.
As to `O=C(CCc1ccccc1)N1CCN(c2ncc(O)cn2)CC1`, the IC50 entry in series [1], in [10] and in series [9] was “Not Active” in each case.
For the molecule `CC(C)(CC(=O)N1CCN(c2ccc(O)cc2)CC1)c1ccccc1`, the Activity result in the series with HUVEC is on record as “Non-Toxic”. Moreover, the 50% inhibitory concentration (IC50) is 270 nM in series [1] (read-out: IC50); 5200 nM with BXPC-3 [2]; above 30000 nM in [3]; 120 nM in series [6]; 150 nM in [9] (read-out: IC50). Further, the Selectivity ratio in [4] amounted to 5. In addition, the inhibition at 10 µM with BXPC-3 [5] came to 85%.
One may read the logP as a log measure of how a compound divides between an organic and an aqueous phase. Consider `CC(C)(CC(=O)N1CCN(c2ccc(O)cn2)CC1)c1ccccc1`, for which the half-maximal inhibitory concentration (IC50) in series [1] (read-out: IC50) was 1370 nM; in the series on BXPC-3 [2], 3500 nM; in series [3], above 30000 nM; in series [6] it was 150 nM; in series [9] (read-out: IC50), 2370 nM. Also, in series [4], the Selectivity ratio worked out at 5. The same molecule came in with a logP in series [11] of 3.41. Moreover, the inhibition at 10 µM in the series on BXPC-3 [5] stood at 99%.
